Reference: patent publication US20140165223A1, “TNF SUPERFAMILY TRIMERIZATION INHIBITORS” (B.S.R.C. "Alexander Fleming", priority 2011, published 2014)

Columns and labels:
TNF = TNF (Homo sapiens, UniProt P01375); conditions: cited from earlier work
GST-RANKL = molecular target: T1, GST-RANKL (Mus musculus, UniProt O35235); experiment: Ex vivo RANKL-induced osteoclast formation (BM cells, M-CSF + GST-RANKL, TRAP staining); format: cell-based; conditions: BM cells, 25 ng/ml M-CSF, 80 ng/ml GST-RANKL
T1 construct: a cDNA encoding the core ectodomain of murine RANKL residues 158-316, with or without the G278R substitution; made in house; host or cells: Escherichia coli BL21
T1 sequence (O35235 158-316): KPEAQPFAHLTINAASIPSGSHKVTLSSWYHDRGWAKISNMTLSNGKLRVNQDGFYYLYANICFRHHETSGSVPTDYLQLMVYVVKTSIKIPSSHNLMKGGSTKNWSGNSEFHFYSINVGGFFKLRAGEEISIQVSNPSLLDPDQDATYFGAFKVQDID
Protocol: Instead, WT GST-RANKL (ratio 1:0) induced formation of TRAP+ giant osteoclasts (FIGS. 5A-5C). […] Incubation of WT GST-RANKL with GST at similar concentrations (12.5-100 ng/ml), didn't affect the formation of osteoclasts.
A novel small molecule inhibitor of TNF trimerization, named SPD304, has been recently reported^[35] to interact with glycine 122 (G122) that corresponds to G278 in RANKL.
BM cells were collected after flushing out of femurs and tibiae, subjected to gradient purification using FICOLL-PAQUE™ (GE Healthcare), plated in 24-well plates at a density of 5×10^5 cells per well and cultured in αMEM medium (GIBCO) containing 10% fetal bovine serum supplemented with 40 ng/ml RANKL (R&D Systems) and 25 ng/ml M-CSF (R&D Systems) for 5 days. Similarly, splenocytes were collected, plated in 24-well plates at a density of 10^6 cells per well and cultured in the presence of recombinant RANKL and M-CSF for 6 days. GST-RANKL^G278R was pre-incubated with WT GST-RANKL at room temperature for 20 min, prior to the stimulation of the BM cell cultures, in order to enable exchange of the RANKL variants and heterotrimer formation. Small molecule SPD304 (Sigma-Aldrich) was pre-incubated with 80 ng/ml GST-RANKL at various concentrations from 0.25 to 2 μM in αMEM medium for 1 hour at room temperature and then added to culture. Osteoclasts were stained for TRAP activity.

[1] = MTT survival assay in osteoclast precursors; format: cell-based; conditions: M-CSF, 1-20 μM, 2 days, read-out: IC50 in MTT survival assay (cell toxicity)
Protocol: (§1) However, SPD304 contains a potentially toxic 3-substituted indole moiety that produces reactive intermediates that possibly cause toxicities by covalently binding to nucleophilic residues of protein and/or DNA. […] Therefore, we investigated the potential of testing SPD304 derivatives designed to be less toxic with higher specificity for human RANKL. […] These small molecules have been also tested as regards their effect on cell toxicity (FIG. 14C).
(§2) Bone marrow (BM) cells were plated in 96-well plates at a density of 10^5 cells per well after gradient purification using FICOLL-PAQUE™ (GE Healthcare). BM cells were cultured in αMEM medium (GIBCO) containing 10% fetal bovine serum supplemented with 25 ng/ml M-CSF (R&D Systems) in the presence of the tested compounds at concentrations from 1-20 μM for 2 days (0.1% DMSO). Serum free a-MEM medium containing 0.5 mg/ml MTT [3-(4,5-Dimethylthiazol-2-yl)-2,5-diphenyltetrazolium bromide] was added for 2 hours in a 37° C. CO2 incubator. After removal of the MTT solution, DMSO was added to extract the dye from the cells and cell viability was accessed at 550 nm.

osteoclast precursors = experiment: MTT survival assay in osteoclast precursors; format: cell-based
Protocol: as §1, §2

human RANKL = molecular target: T2, human RANKL (Homo sapiens, UniProt O14788); experiment: RANKL-mediated osteoclastogenesis assay with human RANKL; format: cell-based
T2 construct: purchased Peprotech
T2 sequence (O14788 143-317 limits assumed): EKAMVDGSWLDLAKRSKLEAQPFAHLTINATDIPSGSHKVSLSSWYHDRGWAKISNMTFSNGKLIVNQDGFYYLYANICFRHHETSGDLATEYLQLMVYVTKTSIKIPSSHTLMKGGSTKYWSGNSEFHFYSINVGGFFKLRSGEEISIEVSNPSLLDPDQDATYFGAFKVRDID
Source text: However, SPD304 contains a potentially toxic 3-substituted indole moiety that produces reactive intermediates that possibly cause toxicities by covalently binding to nucleophilic residues of protein and/or DNA. […] These small molecules have been also tested as regards their effect on cell toxicity (FIG. 14C).
BM cells were collected after flushing out of femurs and tibiae, subjected to gradient purification using FICOLL-PAQUE™ (GE Healthcare), plated in 96-well plates at a density of 6×10^4 cells per well and cultured in αMEM medium (GIBCO) containing 10% fetal bovine serum supplemented with 50 ng/ml human RANKL (Peprotech) and 25 ng/ml M-CSF (R&D Systems) for 5 days. […] Osteoclasts were stained for TRAP activity (Sigma).

soluble mouse RANKL = molecular target: T3, soluble mouse RANKL (Mus musculus, UniProt O35235); experiment: Soluble mouse RANKL preincubated with SPD304: native gel and DSS cross-linking; format: biochemical
T3 construct: a cDNA encoding the core ectodomain of murine RANKL residues 158-316, with or without the G278R substitution; GST (N, cleaved yes); made in house; host or cells: Escherichia coli BL21
T3 sequence (O35235 158-316): T1 sequence (O35235 158-316)
Protocol: FIG. 13. Effect of SDP304 on RANKL structure. (Panel A) RANKL dimer with SPD304 located on optimum binding position. G278 is shown with space-filled atoms and SPD304 with doted surface. Cyan and green ribbons represent the two RANKL monomers. Diagram created using PYMOL v1.3. (Panel B) Recombinant WT soluble mouse RANKL (60 ng) was preincubated for 1 hour at 37° C. either with SPD304 at various concentrations from 6-200 μM or without SPD304 (−), resolved on native gel and detected by Western blotting using a polyclonal antibody against RANKL. (Panel C) Recombinant soluble mouse RANKL was preincubated with SPD304 at increasing concentrations from 6-100 μM, was cross-linked with DSS, run on 12% SDS-PAGE and detected by Western blot using an anti-RANKL polyclonal antibody. A representative figure of three independent experiments is shown for Western blots.
Experimental evidence on the TNF analogue and in silico binding studies on mouse RANKL confirm that the optimal binding position of SPD304, causing trimer inhibition, is located very close (<4 Å) to the G278 mutation position in the structure (FIG. 13, Panel A). To experimentally confirm the interference of the SPD304 with the RANKL structure, soluble mouse RANKL was preincubated with increasing concentrations of SPD304 (6-200 μM) and analyzed in native gels showing the natural conformation of RANKL protein (FIG. 13, Panel B). […]

BAFFR-Fc = experiment: BAFF/BAFF receptor ELISA; format: binding; conditions: serial dilutions of human BAFFR-Fc
Source text: (§3) Glycine at codon 278 of mouse RANKL is highly conserved among various members of the TNF superfamily. In order to investigate whether this glycine to arginine substitution is also critical for trimerization in other TNF superfamily members, we reproduced this mutation in human BAFF (BAFF^G249R), a cytokine that activates B lymphocytes. Thus, we produced recombinant GST-BAFF in E coli and subsequently the soluble BAFF was released from GST by proteolytic cleavage. […] To examine whether soluble BAFF^G249R binds to BAFF receptor (BAFFR), serial dilutions of human BAFFR-Fc were incubated with immobilized soluble BAFF or BAFF^G249R (FIG. 21B). […] Thus, substitution of this conserved glycine abrogates trimerization not only in RANKL but also in other TNF superfamily members such as TNF, BAFF and possibly in many more.
Nunc plates were coated with 3 μg/ml recombinant soluble human BAFF or BAFF^G249R and incubated with increasing amount of recombinant human BAFFR-Fc (R&D Systems). BAFFR binding was detected with a horseradish peroxidase (HRP) conjugated goat anti-human IgG (Fc) (SouthernBiotech, Birmingham, USA) using o-phenylenediamine (OPD) substrate (Thermo Scientific Pierce) that was measured at 490 nm.

BAFF = molecular target: T4, BAFF (Homo sapiens, UniProt Q9Y275); experiment: BAFF cross-linking and Western (trimer formation); format: biochemical; conditions: DSS cross-linking
T4 construct: a cDNA encoding the core ectodomain of human BAFF residues 134-285 (17.5 kD), with or without the G249R substitution; GST (N, cleaved yes); made in house; host or cells: E. coli BL21
Source text: as §3
The chemical cross-linking reagent disuccinimidyl suberate (DSS, Sigma) was used to examine the trimeric property of BAFF as previously described (Douni et al., 2012). Various amounts of BAFF proteins in PBS buffer (pH 7.5) were mixed with 1 mM DSS (the molar ratio of DSS is 10:1). The cross-linking reactions were carried out for 1 hour at room temperature and terminated with 50 mM Tris (pH 7.5) for 30 minutes. Proteins from reaction mixtures were separated on 12% SDS-PAGE and proceeded in Western blot using a polyclonal anti-BAFF antibody (PeproTech).

[2] = molecular target: T5, binding of human RANKL to its receptor RANK (Homo sapiens, UniProt O14788); experiment: RANKL/RANK ELISA; conditions: peptides 3-100 μM, dose dependent
T5 construct: a cDNA encoding the core ectodomain of human RANKL residues 143-317 (20 kD), was cloned into pGEX-6P-1; GST (N, cleaved yes); host or cells: Escherichia coli BL21 (RANKL)
T5 sequence (O14788 143-317): T2 sequence (O14788 143-317 limits assumed)
Protocol: Nunc plates were coated with 100 μl of 250 ng/ml recombinant soluble human RANK-Fc (R&D Systems) overnight. Recombinant soluble human RANKL at 200 ng/ml was pre-incubated with increasing amounts of peptides (3-100 μM) for 1 hour at 37° C. and was added in the RANK-coated wells. RANKL binding was detected with a polyclonal goat anti-RANKL antibody (R&D Systems), followed by a horseradish peroxidase (HRP) conjugated horse anti-goat IgG (Vector) using o-phenylenediamine (OPD) substrate (Thermo Scientific Pierce) that was measured at 490 nm.

T4 sequence (Q9Y275 134-285): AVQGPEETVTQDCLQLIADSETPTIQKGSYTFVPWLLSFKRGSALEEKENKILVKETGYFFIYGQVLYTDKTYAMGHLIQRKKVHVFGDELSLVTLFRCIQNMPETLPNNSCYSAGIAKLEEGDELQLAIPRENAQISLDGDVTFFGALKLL
Chain of TNF (P01375 77-233 limits assumed): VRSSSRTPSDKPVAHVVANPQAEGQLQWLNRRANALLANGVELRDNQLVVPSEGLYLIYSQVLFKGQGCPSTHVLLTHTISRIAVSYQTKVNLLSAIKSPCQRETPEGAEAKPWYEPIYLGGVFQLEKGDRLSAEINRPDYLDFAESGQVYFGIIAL

Cc1cc2occ(CN(C)CCN(C)Cc3cn(-c4cccc(C(F)(F)F)c4)c4ccccc34)c(=O)c2cc1C [SPD304, 6,7-Dimethyl-3-[[methyl[2-[methyl[[1-[3-(trifluoromethyl)phenyl]-1H-indol-3-yl]methyl]amino]ethyl]amino]methyl]-(4H-1-Benzopyran-4-one)]
inhibition of TNF trimerization and function (TNF): effectively inhibits TNF trimerization and function | formation of TRAP+ multinucleated osteoclasts (GST-RANKL; SPD304 at 1 μM): attenuated both the number and the size of TRAP+ multinucleated cells | formation of multinuclear TRAP+ osteoclasts (GST-RANKL; SPD304 at 2 μM): completely inhibited | IC50 at 2 days [1]: 3.4 µM | toxic concentrations in MTT survival assay (osteoclast precursors): above 5 μM | inhibition of human RANKL function in osteoclastogenesis (human RANKL; 2 μM): effective in inhibiting human RANKL function | RANKL forms after chemical cross-linking (soluble mouse RANKL; SPD304 6-100 μM, DSS): dramatic increase of RANKL dimers and monomers | RANKL conformation in native gel (soluble mouse RANKL; SPD304 6-200 μM, 1 hour at 37° C.): a second band of lower molecular weight was also evident

BAFF^G249R: soluble human BAFF residues 134-285 with the G249R substitution
binding to BAFF receptor (BAFFR-Fc): cannot bind to its receptor | BAFF trimer assembly (BAFF): failure of spontaneous trimer assembly

HFYSINVGRFFK (RANKL fragment) [peptide 2]
inhibition of binding of human RANKL to RANK [2]: inhibit the binding of human RANKL to its receptor RANK | inhibition of RANKL function in RANKL-dependent osteoclastogenesis assays (human RANKL; peptides at 50 μM (FIG. 16A)): inhibited the function of RANKL
